Assay results: patent US20130287918A1, “MICROBICIDAL COMPOSITION” (DUPONT NUTRITION DIOSCIENCES APS, priority 2010, published 2013)

How the values were obtained:
[1] = test system: pool of 4 yeast species (Candida tropicalis DCS 604, Zygosaccharomyces bailii DCS 1167 and DCS 1172, Pichia spp DCS 1175); assay: Salsa sauce fresh challenge study, yeast count on YGC agar; type: cell-based; details: Salsa sauce 4° C., FP1000-D1 1%, FP1000-D2 1%, MG200 1%, Potassium Sorbate 0.1%
From the text: Samples of the Salsa sauce (formula in table 17) with and without the experimental blend were produced. […] It needs to be mentioned that the Salsa sauce was not pasteurized.
Each batch was split (scheme table 15) in probes of 90 gram and placed in sterile jars. 21 probes of each batch were inoculated with the desired level of yeast and 5 probes of each batch were inoculated with mould spores, respectively at a targeted inoculation rate of 300 to 800 CFU/g.
(§1) The viscous products were thoroughly mixed (2 minutes) within 10 minutes of inoculation to ensure that the inoculum was evenly distributed throughout the product. One sample remained un-inoculated and was used as negative control to monitor the native contamination flora. All samples were incubated in the dark at chilled temperature (4° C.) and assayed for yeast, plated on an appropriate yeast medium, until confirmed failure (≧1.0E+06 CFU/g) or until visible mould growth, respectively. In parallel, the growth of lactic acid bacteria and total cell count were monitored on MRS and PCA in all the batches and the non-inoculated blind, respectively.
(§2) In total 8 strains, available from Danisco's Culture Collection (DCS) (Danisco A/S, Brabrand, Denmark) were employed as 1 yeast and 1 mould pool in the respective Salsa sauce. Originally, they were isolated e.g. from spoiled ketchup, mayonnaise. Salsa dressing or obtained from official culture collections such as DMSZ.
(§3) Before each experiment, a stock culture of each yeast, maintained at −86° C. in suitable broth containing glycerol 50% (v/v), was propagated through two consecutive growth cycles in suitable media (YGC-agar (VWR) pH 5.1+0.2; YM Broth (Becton, Dickinson and Company) at pH 6.0±0.2 at and temperature (25° C.). The overnight cultures are diluted in saline solution to obtain working cultures. A cocktail of the yeasts was generated by adding equal cell counts of each culture into a sterile container and mixed appropriately. The yeast cocktail was diluted and inoculated into the product in order to achieve the final desired concentration. Pool counts were verified via plate count.
The Salsa sauces were assayed at time zero, day 3, day 7, day 14 and were plated bi-weekly thereafter until day 92. CFU/g was detected for 3 samples from each batch inoculated with yeast. Before each sampling (closed jar), the sample was thoroughly mixed, 10 gram sample were aseptically pulled from each jar and diluted with peptone water. Each sample was stomached (1 min, normal setting) plated in duplicate onto YGC agar (VWR) and MRS (VWR), and incubated at 25° C. for 5 days and 37° C. for 3 days, respectively.

[2] = test system: pool of 4 yeast species (Candida tropicalis DCS 604, Zygosaccharomyces bailii DCS 1167 and DCS 1172, Pichia spp DCS 1175); assay: BBQ sauce challenge study, yeast count on YGC agar; type: cell-based; details: for Cell counts on YGC-agar (yeast growth): BBQ sauce 20° C., Potassium Sorbate 0.1%
Method: Samples of the BBQ sauce (formula in table 9) with and without the experimental blend were produced in the Danisco Culinary Application Laboratory, Brabrand.
Each batch was split (scheme table 8) in probes of 90 gram and placed in sterile jars. 42 probes of each batch were inoculated with the desired level of yeast and 5 probes of each batch were inoculated with mould spores, respectively at a targeted inoculation rate of 500 to 1000 CFU/g.
as §1, with “incubated” for “incubated in the dark”, “ambient” for “chilled”, “(20°” for “(4°”
as §2, with “strains, from” for “strains,”, “as one” for “as 1”, “and one” for “and 1”, “respective BBQ” for “respective Salsa”
as §3, with “company)” for “Company)”
The BBQ sauces were assayed at time zero, day 2, day 5, day 12, weekly until week 10 (day 68) and bi-weekly thereafter until week 19 (day 131). CFU/g was detected for 3 samples from each batch inoculated with yeast. Before each sampling (closed jar), the sample was thoroughly mixed. 10 gram sample were aseptically pulled from each jar and diluted with peptone water. Each sample was stomached (1 min, normal setting) plated in duplicate onto YGC agar (VWR) and MRS (VWR), and incubated at 25° C. for 5 days and 37° C. for 3 days, respectively.

`C/C=C/C=C/C(=O)[O-].[K+]` [Potassium Sorbate, potassium sorbate] was tested, and the “Cell counts on YGC-agar (yeast growth)” value ([1]; day 0) was 4.75E+02 CFU/g, the “Cell counts on YGC-agar (yeast growth)” value ([1]; day 2) was 2.50E+02 CFU/g and the “Cell counts on YGC-agar (yeast growth)” value ([1]; day 5) was 1.00E+02 CFU/g. For the same compound, the “Cell counts on YGC-agar (yeast growth)” value ([1]; day 7) was 6.80E+01 CFU/g, the “Cell counts on YGC-agar (yeast growth)” value ([1]; day 14) was 4.80E+01 CFU/g and the “Cell counts on YGC-agar (yeast growth)” value ([1]; day 28) was 1.45E+02 CFU/g. The “Cell counts on YGC-agar (yeast growth)” value ([1]; day 41) was 3.30E+01 CFU/g, the “Cell counts on YGC-agar (yeast growth)” value ([1]; day 55) was 3.20E+01 CFU/g and the “Cell counts on YGC-agar (yeast growth)” value ([1]; day 93) was 3.30E+01 CFU/g. The “initial reduction of the inoculated cell load” value ([2]; BBQ sauce, YM10 1% and 0.5%, potassium sorbate) was 3 log, the “Cell counts on YGC-agar (yeast growth)” value ([2]; day 0, YM10 1%, MG200 1%, Competitor product 1.25%) was 6.07E+02 CFU/g and the “Cell counts on YGC-agar (yeast growth)” value ([2]; day 2, YM10 1%, MG200 1%, Competitor product 1.25%) was 1.47E+02 CFU/g. For the same compound, the “Cell counts on YGC-agar (yeast growth)” value ([2]; day 5, YM10 1%, MG200 1%, Competitor product 1.25%) was 2.50E+01 CFU/g, the “Cell counts on YGC-agar (yeast growth)” value ([2]; day 12, YM10 1%, MG200 1%, Competitor product 1.25%) was 1.00E+00 CFU/g and the “Cell counts on YGC-agar (yeast growth)” value ([2]; day 19, YM10 1%, MG200 1%, Competitor product 1.25%) was 1.00E+00 CFU/g. For the same compound, the “Cell counts on YGC-agar (yeast growth)” value ([2]; day 26, YM10 1%, MG200 1%, Competitor product 1.25%) was 1.00E+00 CFU/g, the “Cell counts on YGC-agar (yeast growth)” value ([2]; day 41, YM10 1%, MG200 1%, Competitor product 1.25%) was 1.00E+00 CFU/g and the “Cell counts on YGC-agar (yeast growth)” value ([2]; day 49) was 1.00E+00 CFU/g. For the same compound, the “Cell counts on YGC-agar (yeast growth)” value ([2]; day 55) was 1.00E+00 CFU/g, the “Cell counts on YGC-agar (yeast growth)” value ([2]; day 68) was 1.00E+00 CFU/g and the “Cell counts on YGC-agar (yeast growth)” value ([2]; day 82) was 1.00E+00 CFU/g. The “Cell counts on YGC-agar (yeast growth)” value ([2]; day 104) was 1.00E+00 CFU/g, the “Cell counts on YGC-agar (yeast growth)” value ([2]; day 117) was 1.00E+00 CFU/g and the “Cell counts on YGC-agar (yeast growth)” value ([2]; day 131) was 2.50E+01 CFU/g.
